How the values were obtained:
SW-620 cells = test: Annexin V-FITC/propidium iodide apoptosis assay; assay type: cell-based, human; conditions: for total increase in apoptosis vs control untreated cells: 24 h; for induction of apoptosis (in words): SW-620, 5 and 10 µM; for total increase in apoptosis vs control untreated cells, range: SW-620, over the concentrations 5 and 10 µM
Protocol: Further investigation for compounds 5a and 5d concerning their potential role of apoptosis induction, using Annexin V-FITC/PI double staining assay, was performed to evaluate their impact on both early and late apoptosis percentages in SW-620 cancer cell lines (Figure 6). […] As shown, compound 5a induced approximately 1.7-folds and 3.8-folds total increase in apoptosis at concentration of 5 µM and 10 µM, respectively, in comparison to the control untreated SW-620 cell line (Figure 6(A)).
Figure 6. (A) AnnexinV/PI apoptosis assay for compound 5a. Tow concentrations (5 and 10 µM) of compound 5a, in addition untreated plate as a control were used to test the apoptotic effect by using Annexin V/PI in SW-620 cell line. Cells were treated with the compound 5a for 24 h. (B) AnnexinV/PI apoptosis assay for compound 5d. Tow concentrations (5 and 10 µM) of compound 5d, in addition untreated plate as a control were used to test the apoptotic effect by using Annexin V/PI in SW-620 cell line. Cells were treated with the compound 5d for 24 h. […] Their printed values are 1.93%, 2.06%, 1.81% in panel A and 0.73%, 2.01%, 1.62% in panel B. […]
2.4. Measurement of Apoptosis by Annexin V-FITC/PI Assay
Induction of apoptosis was measured by Dead Cell Apoptosis Kit with Annexin V FITC and PI, for flow cytometry (Thermofischer scientific, OR, USA) according to the manufacturer’s instruction. SW620 cells were seeded in a 6-well plate (3 × 10^5 cells per well) and treated with the various compound for 24h. Both floating and adherent cells were harvested, pooled together, and incubated with Annexin V-FITC and PI for 15 min on ice in dark. The cells were analyzed by BD FACSCalibur™ cell analyzer (BD Biosciences, CA, USA) at an emission of 530 nm (FL1 channel) and >575 nm (FL3). […]

UACC-257 = assay type: cell-based; conditions: UACC-257, five-dose test
NCI/ADR-RES = assay type: cell-based; conditions: Homo sapiens, five-dose test
KM12 = assay type: cell-based; conditions: KM12, five-dose test
HCT-116 = assay type: cell-based; conditions: Homo sapiens; HCT-116, five-dose test
SK-OV-3 = assay type: cell-based, human; conditions: SK-OV-3, five-dose test
NCI-H226 = assay type: cell-based; conditions: Homo sapiens, NCI-H226, five-dose test
MALME-3M = assay type: cell-based, human; conditions: five-dose test
TK-10 = assay type: cell-based, human; conditions: TK-10, five-dose test
SW-620 = assay type: cell-based; conditions: SW-620, five-dose test
NCI-H23 = assay type: cell-based; conditions: NCI-H23, five-dose test
OVCAR-3 = assay type: cell-based; conditions: Homo sapiens; OVCAR-3, five-dose test
CAKI-1 = assay type: cell-based, human; conditions: CAKI-1, five-dose test
Melanoma subpanel = assay type: cell-based, human
SK-MEL-5 = assay type: cell-based; conditions: Homo sapiens; SK-MEL-5, five-dose test
NCI-H522 = assay type: cell-based; conditions: NCI-H522, five-dose test
SNB-75 = assay type: cell-based; conditions: SNB-75, five-dose test
HCT-15 = assay type: cell-based; conditions: HCT-15, five-dose test
HT29 = assay type: cell-based; conditions: Homo sapiens, HT-29; HT29, five-dose test; read-out: LC50 (the source's name)
IGROV1 = assay type: cell-based; conditions: Homo sapiens, IGROV-1; IGROV1, five-dose test
U251 = assay type: cell-based, human; conditions: U251, five-dose test
COLO 205 = assay type: cell-based; conditions: COLO 205, five-dose test
Ovarian Cancer subpanel = assay type: cell-based, human
OVCAR-8 = assay type: cell-based; conditions: OVCAR-8, five-dose test
[1] = Homo sapiens, read-out: LC50 (the source's name)

`Cc1c(C(=O)N/N=C2\C(=O)Nc3ccccc32)oc2ccccc12` [Compound 5a] was tested, and the “total increase in apoptosis vs control untreated cells” value (SW-620 cells; SW-620, 5 µM) was “approximately 1.7 folds”, the “total increase in apoptosis vs control untreated cells” value (SW-620 cells; SW-620, 10 µM) was about 3.8 folds and the “induction of apoptosis (in words)” value (SW-620 cells) was “dose dependent induction of apoptosis”. The “total increase in apoptosis vs control untreated cells, range” value (SW-620 cells) was 1.7–3.8 folds.
Compound `COc1ccc2c(c1)/C(=N/NC(=O)c1oc3ccccc3c1C)C(=O)N2` [Compound 5d] has an LC50 (concentration killing 50% of cells) (UACC-257; Homo sapiens) of over 100 µM, a TGI (UACC-257) of over 100 µM and a GI50 (NCI/ADR-RES) of 2.47 µM. It also gave an LC50 (NCI/ADR-RES) of over 100 µM, a CC50 (KM12; [1]) of over 100 µM and a TGI (KM12) of over 100 µM. The GI50 (HCT-116) was 1.92 µM, the GI50 (SK-OV-3; Homo sapiens) was 1.82 µM and the TGI (SK-OV-3) was 3.83 µM. It also gave a GI50 (NCI-H226) of 2.19 µM, a CC50 (NCI-H226; read-out: LC50 (the source's name)) of over 100 µM and a GI50 (MALME-3M; Homo sapiens) of 1.81 µM. For the same compound, the TGI (MALME-3M) was 3.79 µM, the GI50 (TK-10; Homo sapiens) was 2.32 µM and the TGI (TK-10) was 4.02 µM. It also gave a CC50 (SW-620; [1]) of over 100 µM, a TGI (SW-620) of over 100 µM and a GI50 (NCI-H23; Homo sapiens) of 1.86 µM. It also gave an LC50 (NCI-H23; Homo sapiens) of over 100 µM, a TGI (NCI-H23) of 4.43 µM and a GI50 (OVCAR-3) of 1.84 µM. The TGI (CAKI-1) was 3.24 µM, the GI50 (CAKI-1; Homo sapiens) was 1.56 µM and the “total increase in apoptosis vs control untreated cells” value (SW-620 cells; SW-620, 5 µM) was about 2.9 folds. For the same compound, the “total increase in apoptosis vs control untreated cells” value (SW-620 cells; SW-620, 10 µM) was about 3.8 folds, the “induction of apoptosis (in words)” value (SW-620 cells) was “dose dependent induction of apoptosis” and the “total increase in apoptosis vs control untreated cells, range” value (SW-620 cells) was 2.9–3.8 folds. For the same compound, the GI50 (Melanoma subpanel; Homo sapiens, Melanoma subpanel, read-out: MG-MID (GI50 average of the subpanel)) was 3.18 µM, the Selectivity index (Melanoma subpanel; full panel MID / subpanel MID, Melanoma) was 0.78 and the LC50 (50% lethal concentration) (SK-MEL-5) was over 100 µM. It also gave a GI50 (NCI-H522; Homo sapiens) of 6.07 µM, an LC50 (concentration killing 50% of cells) (NCI-H522; Homo sapiens) of over 100 µM and a TGI (NCI-H522) of over 100 µM. For the same compound, the GI50 (SNB-75; Homo sapiens) was 1.25 µM, the CC50 (SNB-75; [1]) was 6.04 µM and the TGI (SNB-75) was 2.75 µM. For the same compound, the TGI (HCT-15) was over 100 µM, the LC50 (HCT-15; Homo sapiens) was over 100 µM and the GI50 (MDA-MB-468; Homo sapiens, MDA-MB-468) was 2.6 µM. It also gave a CC50 (MDA-MB-468; Homo sapiens, MDA-MB-468, read-out: LC50) of over 100 µM, a TGI (MDA-MB-468; MDA-MB-468, five-dose test) of 6.52 µM and a CC50 (HT29) of over 100 µM. The GI50 (IGROV1) was 2.1 µM, the LC50 (IGROV1) was over 100 µM and the GI50 (U251; Homo sapiens, U-251) was 2.03 µM. For the same compound, the TGI (U251) was 4.26 µM, the TGI (COLO 205) was over 100 µM and the LC50 (concentration killing 50% of cells) (COLO 205; Homo sapiens) was over 100 µM. For the same compound, the GI50 (Ovarian Cancer subpanel; Homo sapiens, Ovarian Cancer subpanel, read-out: MG-MID (GI50 average of the subpanel)) was 2.29 µM, the Selectivity index (Ovarian Cancer subpanel; full panel MID / subpanel MID, Ovarian Cancer) was 1.09 and the GI50 (OVCAR-8; Homo sapiens) was 3.22 µM. It also gave an LC50 (OVCAR-8; Homo sapiens) of over 100 µM and a TGI (OVCAR-8) of over 100 µM.
